According to US8686041B2, “Inhibition of ornithine aminotransferase for the treatment of proliferative disorders” (Hadasit Medical Research Services & Development, Ltd., priority 2006, dated 2014):

Assays:
HepG2 = experiment: αFP secretion by HCC cell lines with Gabaculine analogue 8; assay type: cell-based, human; conditions: 48 hours
Procedure: (§1) 1×10^5 cells/well of each of Hep3b and HepG2 hepatocellular carcinoma cell lines were plated in triplicate and incubated at 37° C. Gabaculine analogue 8 was added to wells at varying concentrations (0.1 μg/ml, 1 μg/ml, 10 μg/ml and 50 μg/ml). Cells returned to incubator for further incubation of 48 hours. In the fourth day of the experiment, one ml of supernatant from each well was transferred to eppendorf tubes and analyzed for αFP concentration. αFP levels were checked using the Abbott Diagnostic AxSYM system. Encouraged by the in vitro and in vivo results of inhibiting OAT using Gabaculine, the inventors next examined the in vitro effect of a further OAT inhibitor, Gabaculine analogue 8 (LHJ-II-79), on AFP secretion from two different HCC cell lines. Therefore, Hep3b and HepG2 hepatocellular carcinoma cell lines were detached from culture dishes using trypsin-EDTA, re-plated in triplicates in 12 well culture dishes (1×10^5 cells/well) and incubated at 37° C. Gabaculine analogue 8 was added to wells at varying concentrations (0.1 μg/ml, 1 μg/ml, 10 μg/ml and 50 μg/ml). After 48 hours, cell supernatant was analyzed for AFP concentration.

HEP3B = experiment: as above; assay type: cell-based, human; conditions: 48 hours
Procedure: as §1

[1] = 0.1-50 μg/ml, effect concentration dependent

SMILES: Cl.NC1CC(C(=O)O)CC1=C=C(C(F)(F)F)C(F)(F)F (stereo not shown) [analogue 8, 1-carboxy-3-amino-4-bis(trifluoromethyl)vinylidene cyclopentane hydrochloride]
- AFP secretion by the cells, in words (HepG2; [1]): significant reduction of AFP secretion
- AVG results AF (HepG2; EXP. I, 10 ug/ml, 1:100 dil, CONTROL 34.19): 37.98 ng/mL
- AVG results AF (HepG2; EXP. I, 50 ug/ml, 1:100 dil, CONTROL 34.19): 23.54 ng/mL
- AVG results AF (HepG2; EXP. II, 0.1 ug/ml, 1:100 dil, CONTROL 11.93): 11.92 ng/mL
- AVG results AF (HepG2; EXP. II, 1 ug/ml, 1:100 dil, CONTROL 11.93): 12.85 ng/mL
- AVG results AF (HepG2; EXP. II, 10 ug/ml, 1:100 dil, CONTROL 11.93): 11.38 ng/mL
- AVG results AF (HepG2; EXP. II, 50 ug/ml, 1:100 dil, CONTROL 11.93): 8.54 ng/mL
- AVG results AF (HepG2; EXP. III, 10 ug/ml, 1:100 dil, CONTROL 12.07): 10.67 ng/mL
- AVG results AF (HepG2; EXP. III, 50 ug/ml, 1:100 dil, CONTROL 12.07): 7.57 ng/mL
- AVG results AF (HepG2; EXP. IV, 10 ug/ml, 1:50 dil, CONTROL 13.32): 12.74 ng/mL
- AVG results AF (HepG2; EXP. IV, 50 ug/ml, 1:50 dil, CONTROL 13.32): 8.94 ng/mL
- AFP secretion by the cells, in words (HEP3B; [1]): significant reduction of AFP secretion
- AVG results AF (HEP3B; EXP. I, 10 ug/ml, 1:5 dil, CONTROL 42.52): 37.96 ng/mL
- AVG results AF (HEP3B; EXP. I, 50 ug/ml, 1:5 dil, CONTROL 42.52): 18.52 ng/mL
- AVG results AF (HEP3B; EXP. II, 0.1 ug/ml, 1:5 dil, CONTROL 13.42): 12.66 ng/mL
- AVG results AF (HEP3B; EXP. II, 1 ug/ml, 1:5 dil, CONTROL 13.42): 11.92 ng/mL
- AVG results AF (HEP3B; EXP. II, 10 ug/ml, 1:5 dil, CONTROL 13.42): 9.63 ng/mL
- AVG results AF (HEP3B; EXP. II, 50 ug/ml, 1:5 dil, CONTROL 13.42): 9.37 ng/mL
- AVG results AF (HEP3B; EXP. III, 10 ug/ml, 1:5 dil, CONTROL 11.39): 10.97 ng/mL
- AVG results AF (HEP3B; EXP. III, 50 ug/ml, 1:5 dil, CONTROL 11.39): 6.98 ng/mL
- AVG results AF (HEP3B; EXP. IV, 10 ug/ml, 1:2 dil, CONTROL 18.45): 13.73 ng/mL
- AVG results AF (HEP3B; EXP. IV, 50 ug/ml, 1:2 dil, CONTROL 18.45): 11.30 ng/mL
